Each structure is given as a SMILES string. A value given as a limit tells only on which side of the number the result lay.

Type in all cases: functional, organism-based
The test system of one assay is rhinovirus A1B. Briefly: Inhibitory activity against rhinovirus type 1B. The conditions noted are these: Rhinovirus A.
The test system of another assay is rhinovirus B4. Briefly: Evaluated for inhibitory activity against rhinovirus type 4. Conditions: Rhinovirus B.
A further assay deals with rhinovirus A2. Put plainly: Evaluated for inhibitory activity against rhinovirus type 2. The conditions noted are these: Rhinovirus A.
A further assay relates to rhinovirus B5. Briefly: Evaluated for inhibitory activity against rhinovirus type 5. Conditions: Rhinovirus B.

In turn, `Nc1ccc(Nc2nc(Cl)nc3c2ncn3Cc2ccccc2)cc1` yielded an IC50 in the assay with rhinovirus A1B of more than 20 µM.

On to `Nc1cccc(Nc2nc(Cl)nc3c2ncn3Cc2ccccc2)c1`, for which, in the assay on rhinovirus A1B, the IC50 was more than 10 µM.

Turning to `FC(F)(F)c1ccc(Nc2nc(Cl)nc3c2ncn3Cc2ccccc2)cc1`, the IC50 with rhinovirus A1B came out at 0.3 µM; in the assay with rhinovirus B4, 85 µM; in the assay with rhinovirus A2, 16.6 µM; with rhinovirus B5, 200 µM.

With `Clc1nc(Nc2ccc(Br)cc2)c2ncn(Cc3ccccc3)c2n1`, the IC50 in the assay with rhinovirus A1B was 0.3 µM; in the assay with rhinovirus B4 it was 7.8 µM; in the assay with rhinovirus A2, 2.2 µM; in the assay on rhinovirus B5 it was 9.5 µM.

`CCCCOc1cccc(Nc2nc(Cl)nc3c2ncn3Cc2ccccc2)c1`: in the assay with rhinovirus A1B, the IC50 is 22 µM.

On to `Cc1ccc(Cn2cnc3c(N(C)c4ccccc4)nc(C(F)(F)F)nc32)cc1`, for which the IC50 is 1.9 µM with rhinovirus A1B, 5.1 µM in the assay on rhinovirus B4, 2.7 µM in the assay on rhinovirus A2 and more than 8 µM in the assay on rhinovirus B5.

As to `CS(=O)(=O)c1cccc(Nc2nc(Cl)nc3c2ncn3Cc2ccccc2)c1`, the IC50 with rhinovirus A1B is more than 40 µM.

For `Fc1cccc(Nc2nc(Cl)nc3c2ncn3Cc2ccccc2)c1`, the IC50 came out at 1.2 µM with rhinovirus A1B, 5.5 µM in the assay with rhinovirus B4, 5.6 µM in the assay on rhinovirus A2 and 5.6 µM in the assay with rhinovirus B5.

As to `N#Cc1ccc(Nc2nc(Cl)nc3c2ncn3Cc2ccccc2)cc1`, in the assay on rhinovirus A1B, the IC50 is 9.4 µM.

`CCOC(=O)c1ccc(Nc2nc(Cl)nc3c2ncn3Cc2ccccc2)cc1`: the IC50 in the assay with rhinovirus A1B was more than 10 µM.

For `Fc1ccc(Nc2nc(Cl)nc3c2ncn3Cc2ccccc2)cc1`, the IC50 with rhinovirus A1B was found to be 1.28 µM; with rhinovirus B4, 6.8 µM; with rhinovirus A2, 6.2 µM; in the assay on rhinovirus B5, 10 µM.

With `CC(C)Oc1cccc(Nc2nc(Cl)nc3c2ncn3Cc2ccccc2)c1`, the results for the IC50 with rhinovirus A1B, in the assay with rhinovirus B4 and with rhinovirus A2 were 2 µM, 8.3 µM and 3.6 µM, respectively.

With `CCCCOc1ccc(Nc2nc(Cl)nc3c2ncn3Cc2ccccc2)cc1`, in the assay on rhinovirus A1B, the IC50 was more than 40 µM.

For the compound `Clc1nc(Nc2ccccc2)c2ncn(Cc3ccccc3)c2n1`, the IC50 stood at 1.65 µM with rhinovirus A1B, 14.2 µM with rhinovirus B4, 8.3 µM in the assay on rhinovirus A2 and 16.3 µM in the assay on rhinovirus B5.

Take `CC(=O)Nc1ccc(Nc2nc(Cl)nc3c2ncn3Cc2ccccc2)cc1`: in the assay with rhinovirus A1B, the IC50 is more than 20 µM.

On to `Cc1ccc(Nc2nc(Cl)nc3c2ncn3Cc2ccccc2)cc1`, for which the IC50 in the assay on rhinovirus A1B is 0.3 µM; in the assay with rhinovirus A2, 1.2 µM.

In the assay with rhinovirus A1B, `CCCCc1ccc(Nc2nc(Cl)nc3c2ncn3Cc2ccccc2)cc1` registered an IC50 of more than 10 µM.

For `Cc1ccc(Cn2cnc3c(Nc4ccccc4)nc(Cl)nc32)cc1`, the IC50 is 1 µM in the assay on rhinovirus A1B, 6.4 µM in the assay on rhinovirus B4, 3.9 µM with rhinovirus A2 and more than 8 µM in the assay with rhinovirus B5.

Turning to `CSc1ccc(Nc2nc(Cl)nc3c2ncn3Cc2ccccc2)cc1`, the IC50 in the assay on rhinovirus A1B came to 0.14 µM; in the assay on rhinovirus B4, 8.7 µM; in the assay with rhinovirus A2, 11 µM.

Take `Cc1ccc(Cn2cnc3c(N(C)C)nc(C(F)(F)F)nc32)cc1`: the IC50 with rhinovirus A1B worked out at 0.03 µM.

In the assay with rhinovirus A1B, `O=[N+]([O-])c1cccc(Nc2nc(Cl)nc3c2ncn3Cc2ccccc2)c1` returned an IC50 of more than 10 µM.

Take `CN(C)c1cccc(Nc2nc(Cl)nc3c2ncn3Cc2ccccc2)c1`: the IC50 in the assay with rhinovirus A1B stood at 2.4 µM; in the assay on rhinovirus B4, 8.4 µM; with rhinovirus A2 it was 3.1 µM; with rhinovirus B5, 8.5 µM.

As for `CN(C)c1ccc(Nc2nc(Cl)nc3c2ncn3Cc2ccccc2)cc1`, the IC50 in the assay on rhinovirus A1B was more than 40 µM.

On to `CS(=O)(=O)c1ccc(Nc2nc(Cl)nc3c2ncn3Cc2ccccc2)cc1`, for which the IC50 in the assay with rhinovirus A1B worked out at 2 µM; in the assay with rhinovirus B4 it was 4.5 µM; with rhinovirus A2, 10.5 µM.

For `CC(C)Oc1ccc(Nc2nc(Cl)nc3c2ncn3Cc2ccccc2)cc1`, the IC50 in the assay with rhinovirus A1B is more than 40 µM.

`CC(=O)Nc1cccc(Nc2nc(Cl)nc3c2ncn3Cc2ccccc2)c1` gave an IC50 with rhinovirus A1B of 1.3 µM.

As for `Clc1nc(Nc2cccc(Br)c2)c2ncn(Cc3ccccc3)c2n1`, the IC50 in the assay on rhinovirus A1B is 2.9 µM; in the assay on rhinovirus B4, 5.7 µM; in the assay with rhinovirus A2 it was 2.8 µM; in the assay on rhinovirus B5, 7.6 µM.

`CCOC(=O)c1cccc(Nc2nc(Cl)nc3c2ncn3Cc2ccccc2)c1` displayed an IC50 in the assay with rhinovirus A1B of more than 10 µM.

One may read the IC50 as the concentration that gives 50% inhibition. A high value points to weaker potency in that assay.

For the origin of these results see ChEMBL document CHEMBL1124760, “Antirhinovirus activity of 6-anilino-9-benzyl-2-chloro-9H-purines” (J Med Chem, 1990).
